Reference: PubChem BioAssay (NCI)
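Five concentrations, 48 hours, 96-well plates. Abbreviation: GI50, concentration required for 50% inhibition of growth. At the TGI there is no net growth.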

What was measured:
Test in all cases: NCI tumour cell line growth inhibition, 48 h
786-0 renal = test system: 786-0 renal
A498 renal = test system: A498 renal
A549 NSCLC = test system: A549 NSCLC
ACHN renal = test system: ACHN renal
BT-549 breast = test system: BT-549 breast
CAKI-1 renal = test system: CAKI-1 renal
CCRF-CEM leukemia = test system: CCRF-CEM leukemia
COLO 205 colon = test system: COLO 205 colon
DU-145 prostate = test system: DU-145 prostate
HCC-2998 colon = test system: HCC-2998 colon
HCT-116 colon = test system: HCT-116 colon
HCT-15 colon = test system: HCT-15 colon
HL-60(TB) leukemia = test system: HL-60(TB) leukemia
HOP-62 NSCLC = test system: HOP-62 NSCLC
HOP-92 NSCLC = test system: HOP-92 NSCLC
HS 578T breast = test system: HS 578T breast
HT29 colon = test system: HT29 colon
IGROV1 ovarian = test system: IGROV1 ovarian
K-562 leukemia = test system: K-562 leukemia
KM12 colon = test system: KM12 colon
LOX IMVI melanoma = test system: LOX IMVI melanoma
M14 melanoma = test system: M14 melanoma
MALME-3M melanoma = test system: MALME-3M melanoma
MCF7 breast = test system: MCF7 breast
MDA-MB-231 breast = test system: MDA-MB-231 breast
MOLT-4 leukemia = test system: MOLT-4 leukemia
NCI-H226 lung = test system: NCI-H226 lung
NCI-H23 lung = test system: NCI-H23 lung
NCI-H460 lung = test system: NCI-H460 lung
NCI-H522 lung = test system: NCI-H522 lung
OVCAR-3 ovarian = test system: OVCAR-3 ovarian
OVCAR-4 ovarian = test system: OVCAR-4 ovarian
OVCAR-8 ovarian = test system: OVCAR-8 ovarian
PC-3 prostate = test system: PC-3 prostate
RPMI-8226 leukemia = test system: RPMI-8226 leukemia
RXF 393 renal = test system: RXF 393 renal
SF-268 CNS = test system: SF-268 CNS
SF-295 CNS = test system: SF-295 CNS
SF-539 CNS = test system: SF-539 CNS
SK-MEL-5 melanoma = test system: SK-MEL-5 melanoma
SK-OV-3 ovarian = test system: SK-OV-3 ovarian
SN12C renal = test system: SN12C renal
SNB-19 CNS = test system: SNB-19 CNS
SNB-75 CNS = test system: SNB-75 CNS
SR leukemia = test system: SR leukemia
SW-620 colon = test system: SW-620 colon
TK-10 renal = test system: TK-10 renal
U251 CNS = test system: U251 CNS
UACC-257 melanoma = test system: UACC-257 melanoma
UACC-62 melanoma = test system: UACC-62 melanoma
UO-31 renal = test system: UO-31 renal

Nc1c(C(=O)Nc2ccccc2)sc2nc3c(cc12)C(O)CCC3 (stereo not given) was tested, and the GI50 (786-0 renal) was 623 nM, the TGI (786-0 renal) was > 100000 nM and the GI50 (A498 renal) was 273 nM. For the same molecule, the TGI (A498 renal) was > 100000 nM, the GI50 (A549 NSCLC) was 406 nM and the TGI (A549 NSCLC) was > 100000 nM. For the same molecule, the GI50 (ACHN renal) was 981 nM, the TGI (ACHN renal) was > 100000 nM and the GI50 (BT-549 breast) was 1240 nM. The TGI (BT-549 breast) was > 100000 nM, the GI50 (CAKI-1 renal) was 349 nM and the TGI (CAKI-1 renal) was > 100000 nM. The GI50 (CCRF-CEM leukemia) was 323 nM, the TGI (CCRF-CEM leukemia) was > 100000 nM and the GI50 (COLO 205 colon) was 295 nM. For the same molecule, the TGI (COLO 205 colon) was 2630 nM, the GI50 (DU-145 prostate) was 355 nM and the TGI (DU-145 prostate) was > 100000 nM. For the same molecule, the GI50 (HCC-2998 colon) was 1070 nM, the TGI (HCC-2998 colon) was > 79300 nM and the GI50 (HCT-116 colon) was 488 nM. For the same molecule, the TGI (HCT-116 colon) was > 100000 nM, the GI50 (HCT-15 colon) was 336 nM and the TGI (HCT-15 colon) was > 100000 nM. For the same molecule, the GI50 (HL-60(TB) leukemia) was 232 nM, the TGI (HL-60(TB) leukemia) was 706 nM and the GI50 (HOP-62 NSCLC) was 455 nM. For the same molecule, the TGI (HOP-62 NSCLC) was > 100000 nM, the GI50 (HOP-92 NSCLC) was 264 nM and the TGI (HOP-92 NSCLC) was > 100000 nM. The GI50 (HS 578T breast) was 362 nM, the TGI (HS 578T breast) was > 100000 nM and the GI50 (HT29 colon) was 323 nM. For the same molecule, the GI50 (IGROV1 ovarian) was 650 nM, the TGI (IGROV1 ovarian) was > 100000 nM and the GI50 (K-562 leukemia) was 196 nM. For the same molecule, the TGI (K-562 leukemia) was > 100000 nM, the GI50 (KM12 colon) was 440 nM and the TGI (KM12 colon) was > 100000 nM. For the same molecule, the GI50 (LOX IMVI melanoma) was 638 nM, the TGI (LOX IMVI melanoma) was > 100000 nM and the GI50 (M14 melanoma) was 281 nM. For the same molecule, the TGI (M14 melanoma) was > 100000 nM, the GI50 (MALME-3M melanoma) was 256 nM and the TGI (MALME-3M melanoma) was > 100000 nM. The GI50 (MCF7 breast) was 241 nM, the TGI (MCF7 breast) was > 100000 nM and the GI50 (MDA-MB-231 breast) was 946 nM. The TGI (MDA-MB-231 breast) was > 100000 nM, the GI50 (MOLT-4 leukemia) was 491 nM and the TGI (MOLT-4 leukemia) was > 100000 nM. For the same molecule, the GI50 (NCI-H226 lung) was 1270 nM, the TGI (NCI-H226 lung) was > 100000 nM and the GI50 (NCI-H23 lung) was 665 nM. The TGI (NCI-H23 lung) was > 100000 nM, the GI50 (NCI-H460 lung) was 355 nM and the TGI (NCI-H460 lung) was > 100000 nM. The GI50 (NCI-H522 lung) was 280 nM, the GI50 (OVCAR-3 ovarian) was 344 nM and the TGI (OVCAR-3 ovarian) was > 100000 nM. For the same molecule, the GI50 (OVCAR-4 ovarian) was 3660 nM, the TGI (OVCAR-4 ovarian) was > 100000 nM and the GI50 (OVCAR-8 ovarian) was 471 nM. The TGI (OVCAR-8 ovarian) was > 100000 nM, the GI50 (PC-3 prostate) was 325 nM and the TGI (PC-3 prostate) was > 100000 nM. For the same molecule, the GI50 (RPMI-8226 leukemia) was 372 nM, the TGI (RPMI-8226 leukemia) was > 100000 nM and the GI50 (RXF 393 renal) was 349 nM. For the same molecule, the TGI (RXF 393 renal) was > 100000 nM, the GI50 (SF-268 CNS) was 700 nM and the TGI (SF-268 CNS) was > 100000 nM. For the same molecule, the GI50 (SF-295 CNS) was 297 nM, the TGI (SF-295 CNS) was > 100000 nM and the GI50 (SF-539 CNS) was 225 nM. For the same molecule, the TGI (SF-539 CNS) was 604 nM, the GI50 (SK-MEL-5 melanoma) was 407 nM and the TGI (SK-MEL-5 melanoma) was 23900 nM. The GI50 (SK-OV-3 ovarian) was 439 nM, the TGI (SK-OV-3 ovarian) was > 100000 nM and the GI50 (SN12C renal) was 559 nM. The TGI (SN12C renal) was > 100000 nM, the GI50 (SNB-19 CNS) was 577 nM and the TGI (SNB-19 CNS) was > 100000 nM. The GI50 (SNB-75 CNS) was 278 nM, the TGI (SNB-75 CNS) was > 100000 nM and the GI50 (SR leukemia) was 168 nM. For the same molecule, the TGI (SR leukemia) was > 100000 nM, the GI50 (SW-620 colon) was 371 nM and the TGI (SW-620 colon) was > 100000 nM. For the same molecule, the GI50 (TK-10 renal) was > 100000 nM, the TGI (TK-10 renal) was > 100000 nM and the GI50 (U251 CNS) was 362 nM. The TGI (U251 CNS) was > 100000 nM, the GI50 (UACC-257 melanoma) was > 100000 nM and the TGI (UACC-257 melanoma) was > 100000 nM. For the same molecule, the GI50 (UACC-62 melanoma) was 444 nM, the TGI (UACC-62 melanoma) was > 100000 nM and the GI50 (UO-31 renal) was 689 nM. The TGI (UO-31 renal) was > 100000 nM.
